# Assay results as given in patent US5776935A, “Pyrido-phtalazin diones and their use against neurological disorders associated with excitotoxicity and malfunctioning of glutamatergic neurotransmission” (Merz & Co. GmbH & Co., priority 1996, dated 1998).
# pIC50: −log10 of the molar value.
# Tests used:
# NMDA receptor [1] = target: T1, NMDA receptor (Mus musculus, UniProt P35438); experiment: Pentylenetetrazol (PTZ)-induced convulsions; format: in vivo; conditions: ip, 0.25 h, i.p., PTZ 90 mg/kg i.p., read-out: PTZ ID50
# T1 construct: from tissue; host or cells: living mice (albino Swiss males for NMDA and PTZ tests, NMR females for MES)
# Method: (§1) To assess NMDA receptor antagonistic properties of the tested agents by assessing anticonvulsive effects. Additionally the role of organic acid transporters in the elimination from the brain of tested agents was assessed by using an inhibitor, Probenicid, on the duration of anticonvulsive activity.
# (§2) Male albino Swiss mice (19-21 g) housed 10-15 per cage were used for the NMDA lethality test (Leander et al., 1988). For pentylenetetrazol (PTZ)-induced convulsions male albino Swiss mice (25-34 g.) housed 40 per cage (58×38×20 cm) were used while in the maximal electroshock (MES) and motor impairment tests NMR female mice (18-28 g) housed 5 per cage were employed. All animals were kept with water and food ad libittum under a 12-h light-dark cycle (light on at 6 a.m.), and at a controlled temperature (20°±0.5° C.). All experiments were performed between 10 a.m. and 5 p.m. Tested agents were injected 15 min. i.p before the induction of convulsions if not stated otherwise (see below). Mrz 2/502 was dissolved in saline added with NaOH. Most other agents were dissolved in the following solution: 0.606 g Tris; 5.0 g. glucose; 0.5 g. Tween 80; and 95 ml water. The choline and tetramethylammonium salts were dissolved in distilled water.
# Pentylenetetrazol was injected at a dose of 90 mg/kg (i.p). The presence of general tonic convulsions was then scored for 30 min as this parameter is more sensitive to NMDA receptor antagonists than clonic convulsions. The pharmacological end-point was taken as the presence of tonus in the hind limbs with stretching.
# NMDA receptor [2] = target: T1, NMDA receptor; experiment: NMDA-induced convulsions / lethality test; format: in vivo; conditions: ip, 0.25 h, i.p., 15 min before induction, read-out: NMDA ID50
# Method: as §1, §2
# In the NMDA-induced convulsions test in mice, a dose-response relationship for NMDA was first performed to determine the ED97 dose which was then used for testing of antagonistic properties. After injection of the ED97 dose of NMDA the animals were placed in a small cage (20×28×14 cm) and observed for 20 min. Death preceded by clonic convulsions and by tonic seizures was the pharmacological end-point.
# [3] = target: T2, strychnine-insensitive glycine site (glycineB) of the NMDA receptor (rat cortical membranes) (Rattus norvegicus, UniProt P35439); experiment: [3H]glycine binding assay; conditions: 20 nM [3H]glycine, 100 μM strychnine
# T2 construct: The cortex was dissected and homogenised in 20 volumes of ice-cold 0.32M sucrose; from tissue; host or cells: brain cortex membranes of male Sprague-Dawley rats
# Method: Tissue preparation was performed according to Foster and Wong (1987). Male Sprague-Dawley rats (200-250g) were decapitated and their brains were removed rapidly. The cortex was dissected and homogenised in 20 volumes of ice-cold 0.32M sucrose using a glass-Teflon homogenizer. The homogenate was centrifuged at 1000×g for 10 min. The pellet was discarded and the supernatant centrifuged at 20,000×g for 20 min. The resulting pellet was resuspended in 20 volumes of distilled water and centrifuged for 20 min at 8000×g. Then the supernatant and the buffy coat were centrifuged three times (48,000× g for 20 min) in the presence of 5 mM Tris-HCl, pH 7.4. All centrifugation steps were carried out at 4° C. After resuspension in 5 volumes of 5 mM Tris-HCl, pH 7.4 the membrane suspension was frozen rapidly at -80° C. until the day of assay. On the day of assay the membranes were thawed and washed four times by resuspension in 5 mM Tris-HCl, pH 7.4 and centrifugation at 48,000× g for 20 min. The final pellet was suspended in assay buffer.
# The amount of protein in the final membrane preparation was determined according to the method of Lowry (1951) with some modifications (Hartfree, 1972). 50 μl of Protein samples (in triplicates) were diluted to 1 ml with distilled water and treated with 0.9 ml of a solution containing 2 g potassium sodium tartrate and 10 g Na2 CO3 in 500 ml 1N NaOH and 500ml water. Blank and standard (with bovine serum albumin) were set up in the same way. The tubes were placed in a water bath at 50° C. for 10 min. and cooled at room temperature. 100 μl of a solution containing 2 g potassium sodium tartrate and 1 g CuSO4 x 5 H2 O in 90 ml water and 10 ml 1N NaOH were added. The samples were left at room temperature for at least 10 min., then 3 ml of Folin-Ciocalteu reagent (1 ml of reagent diluted with 15 ml water) was added rapidly during mixing. The tubes were again heated at 50° C. for 10 min. and cooled to room temperature. Absorbencies were then read in 1 cm cuvets at 650 nm. The final protein concentration used for our studies was between 100 and 250 μg/ml.
# Incubation in both binding assays was terminated using a Millipore filter system. The samples, all in triplicate, were rinsed three times with 2.5 ml ice cold assay buffer over glass fibre filters obtained from Schleicher & Schuell under a constant vacuum. Following separation and rinse the filters were placed into scintillation liquid (5 ml; Ultima Gold) and radioactivity retained on the filters was determined by using conventional liquid scintillation counter (Hewlett Packard, Liquid Scintillation Analyser). `Total binding` was the absolute amount of radioligand bound in the absence of any additives whereas `non-specific` binding was determined in the presence of a high concentration of competitor.
# [^3 H]glycine binding assay
# [^3 H]glycine binding assays were performed according to the method described by Kessler and co-workers (1989). Rat cortical membranes were prepared as previously described and the final pellet was suspended in 50 mM Tris-acetate, pH 7.4. At least 5 different concentrations of test compounds were incubated with 2OnM [^3 H]glycine for 30 min at 4° C. in the presence of 100 μM strychnine. All compounds were dissolved in water or DMSO, respectively. Non-specific binding was determined by including 100 μM glycine in the incubation mixture. The incubation was terminated by diluting the samples with 2 ml of stop solution (50 mM Tris-HCl including 10 mM magnesium sulphate, pH 7.4, cooled to <2° C.) followed by a further rinse with 2.5 ml buffer. Filtration was performed as rapidly as possible.
# NMDA receptor [4] = target: T1, NMDA receptor; experiment: Maximal electroshock (MES)-induced tonic convulsions; format: in vivo; conditions: i.p.; for ED50: mouse, ip, 0.25 h, read-out: MES ID50
# Method: as §1, §2
# MES (100 Hz, 0.5 sec shock duration, 50 mA shock intensity, 0.9 ms impulse duration, Ugo Basile) was applied through corneal electrodes. The presence of tonic convulsions was scored (tonic extension of hind paws with minimum angle to the body of 90°). In an additional experiment mice were injected with Probenicid (200 mg/kg) 30 min before administration of the tested agents to assess the role of organic acid transport in elimination (duration of action). The aim was to obtain ED50 s for all parameters scored using the Litchfield Wilcoxon (1949) test for quantal dose responses.
SMILES,ED50 (NMDA receptor [1]) [mg/kg],ED50 (NMDA receptor [2]) [mg/kg],pIC50 [3],activity in the MES test (NMDA receptor [4]),ED50 (NMDA receptor [4]; 15 min before induction) [mg/kg],"MES ID50 (NMDA receptor [4]; 15 min before induction, listed as 502, 15 min) [mg/kg]"
"O=c1[nH]nc(O)c2c1cc1cc(F)ccc1[n+]2[O-] [Mrz 2/516, 8-fluoro-4-hydroxy-1-oxo-1,2-dihydropyridazino[4,5-b]-quinoline 5-oxide]",7.9,40,7.77,effective,16.6,
O=c1[nH][nH]c(=O)c2nc3ccc(Br)cc3cc12 [Mrz 2/503],> 100,> 100,7.89,,> 100,
O=c1[nH][nH]c(=O)c2nc3cc(Cl)c(Cl)cc3cc12 [Mrz 2/515],> 100,98,,,> 100,
O=c1[nH][nH]c(=O)c2nc3ccc(Cl)cc3cc12 [Mrz 2/501],> 40,> 100,7.10,,> 100,
"O=c1[nH]nc(O)c2c1cc1cc(Cl)ccc1[n+]2[O-] [Mrz 2/502, 8-chloro-4-hydroxy-1-oxo-1,2-dihydropyridazino[4,5-b]-quinoline 5-oxide]",8.3,26,7.89,effective,,47.6
"O=c1[nH]nc(O)c2c1cc1cc(Br)ccc1[n+]2[O-] [Mrz 2/514, 8-bromo-4-hydroxy-1-oxo-1,2-dihydropyridazino[4,5-b]-quinoline 5-oxide]",12.8,99,8.40,effective,20.2,
O=c1[nH][nH]c(=O)c2nc3ccc(F)cc3cc12 [Mrz 2/519],> 100,> 100,7.82,,> 60,
